Laboratory results reported in publication PMC5218480 (PLoS ONE, 2017).

Tested on: MV-4-11 cells
Test: Gene expression microarray analysis (Affymetrix PrimeView) and GSEA
Assay type: cell-based, human
Parameters: RFU PODN (11730768_x_at) / Fold change /veh PODN (11730768_x_at) / RFU LINC00158 (11744669_a_at) / Fold change /veh LINC00158 (11744669_a_at) / RFU DUSP10 (11751237_a_at) / Fold change /veh DUSP10 (11751237_a_at) / RFU ID3 (11757404_x_at) / Fold change /veh ID3 (11757404_x_at) / RFU PLEKHG5 (11737974_s_at) / Fold change /veh PLEKHG5 (11737974_s_at) / RFU LRRC4B (11730491_at) / Fold change /veh LRRC4B (11730491_at) / RFU GIMAP4 (11747438_a_at) / Fold change /veh GIMAP4 (11747438_a_at) / RFU KRT8 (11758183_x_at) / Fold change /veh KRT8 (11758183_x_at) / RFU CNN1 (11734310_a_at) / Fold change /veh CNN1 (11734310_a_at) / RFU VPS37D (11726825_at) / Fold change /veh VPS37D (11726825_at) / RFU C10orf10 (11716522_x_at) / Fold change /veh C10orf10 (11716522_x_at) / RFU KIR2DL2 /// KIR2DL4 /// KIR2DL5A /// KIR2DL5B /// KIR2DS1 /// KIR2DS2 /// KIR2DS3 /// KIR2DS4 /// KIR3DL3 /// KIR3DL3 /// KIR3DS1 (11738374_at) / Fold change /veh KIR2DL2 /// KIR2DL4 /// KIR2DL5A /// KIR2DL5B /// KIR2DS1 /// KIR2DS2 /// KIR2DS3 /// KIR2DS4 /// KIR3DL3 /// KIR3DL3 /// KIR3DS1 (11738374_at) / RFU C1QL1 (11718748_at) / Fold change /veh C1QL1 (11718748_at) / RFU TMPRSS4 (11747572_a_at) / Fold change /veh TMPRSS4 (11747572_a_at) / RFU HAMP (11756126_x_at) / Fold change /veh HAMP (11756126_x_at) / RFU RNFT2 (11725882_a_at) / Fold change /veh RNFT2 (11725882_a_at) / RFU NR4A2 (11747474_a_at) / Fold change /veh NR4A2 (11747474_a_at) / RFU ABCC12 (11746883_a_at) / Fold change /veh ABCC12 (11746883_a_at) / RFU TMEM136 (11760407_x_at) / Fold change /veh TMEM136 (11760407_x_at) / RFU CLDN22 /// WWC2 (11732394_at) / Fold change /veh CLDN22 /// WWC2 (11732394_at) / RFU HLA-DPB1 (11760878_x_at) / Fold change /veh HLA-DPB1 (11760878_x_at) / RFU SPINT1 (11716480_a_at) / Fold change /veh SPINT1 (11716480_a_at) / RFU GAP43 (11754022_s_at) / Fold change /veh GAP43 (11754022_s_at) / RFU A4GNT (11735810_at) / Fold change /veh A4GNT (11735810_at) / RFU PRB3 (11715151_x_at) / Fold change /veh PRB3 (11715151_x_at) / RFU TUBB4B (11761932_at) / Fold change /veh TUBB4B (11761932_at) / RFU CAPN14 (11732068_a_at) / Fold change /veh CAPN14 (11732068_a_at) / RFU TMCC2 (11721928_a_at) / Fold change /veh TMCC2 (11721928_a_at) / RFU IRGQ (11745062_a_at) / Fold change /veh IRGQ (11745062_a_at) / RFU FAM174B (11720279_a_at) / Fold change /veh FAM174B (11720279_a_at) / RFU TMPRSS4 (11748680_a_at) / Fold change /veh TMPRSS4 (11748680_a_at) / RFU FAM212B (11763350_a_at) / Fold change /veh FAM212B (11763350_a_at) / RFU PLEKHG5 (11743358_a_at) / Fold change /veh PLEKHG5 (11743358_a_at) / RFU ZSCAN30 (11745921_a_at) / Fold change /veh ZSCAN30 (11745921_a_at) / RFU CMKLR1 (11741424_a_at) / Fold change /veh CMKLR1 (11741424_a_at) / RFU LOC101060620 /// MAPK8IP1 (11723275_at) / Fold change /veh LOC101060620 /// MAPK8IP1 (11723275_at) / RFU SPTSSB (11747773_x_at) / Fold change /veh SPTSSB (11747773_x_at) / RFU PRSS12 (11739890_at) / Fold change /veh PRSS12 (11739890_at) / RFU BIN1 (11741810_x_at) / Fold change /veh BIN1 (11741810_x_at) / RFU WNT11 (11732464_a_at) / Fold change /veh WNT11 (11732464_a_at) / RFU C10orf10 (11716521_a_at) / Fold change /veh C10orf10 (11716521_a_at) / RFU C5orf56 (11738089_at) / Fold change /veh C5orf56 (11738089_at) / RFU CYB561 (11721691_x_at) / Fold change /veh CYB561 (11721691_x_at) / RFU ANKRD19P (11752326_a_at) / Fold change /veh ANKRD19P (11752326_a_at) / RFU OR2T12 /// OR2T33 /// OR2T8 (11738714_s_at) / Fold change /veh OR2T12 /// OR2T33 /// OR2T8 (11738714_s_at) / RFU VCAN (11748164_a_at) / Fold change /veh VCAN (11748164_a_at) / RFU JSRP1 (11732532_at) / Fold change /veh JSRP1 (11732532_at) / RFU KRTAP10-11 (11738290_x_at) / Fold change /veh KRTAP10-11 (11738290_x_at) / RFU MYO3A (11730013_a_at) / Fold change /veh MYO3A (11730013_a_at) / RFU EBF3 (11725865_a_at) / Fold change /veh EBF3 (11725865_a_at) / RFU CAMK2N1 (11719241_x_at) / Fold change /veh CAMK2N1 (11719241_x_at) / RFU C5orf56 (11738088_a_at) / Fold change /veh C5orf56 (11738088_a_at) / RFU OLFML3 (11715873_a_at) / Fold change /veh OLFML3 (11715873_a_at) / RFU LOC100653217 /// NTM (11731650_a_at) / Fold change /veh LOC100653217 /// NTM (11731650_a_at) / RFU MAPK11 (11762145_a_at) / Fold change /veh MAPK11 (11762145_a_at) / RFU FIZ1 (11724087_x_at) / Fold change /veh FIZ1 (11724087_x_at) / RFU OASL (11726364_x_at) / Fold change /veh OASL (11726364_x_at) / RFU SOX15 (11748057_x_at) / Fold change /veh SOX15 (11748057_x_at) / RFU CD79A (11719716_a_at) / Fold change /veh CD79A (11719716_a_at) / RFU HIST1H1D (11736915_at) / Fold change /veh HIST1H1D (11736915_at) / RFU CASKIN2 (11723855_a_at) / Fold change /veh CASKIN2 (11723855_a_at) / RFU LOC730098 (11760151_x_at) / Fold change /veh LOC730098 (11760151_x_at) / RFU OR4N2 (11742367_at) / Fold change /veh OR4N2 (11742367_at) / RFU PRRT2 (11749266_a_at) / Fold change /veh PRRT2 (11749266_a_at) / RFU SNX32 (11753110_a_at) / Fold change /veh SNX32 (11753110_a_at) / RFU CDHR5 (11726645_a_at) / Fold change /veh CDHR5 (11726645_a_at) / RFU RCAN1 (11760418_a_at) / Fold change /veh RCAN1 (11760418_a_at) / RFU FAM167A (11723789_a_at) / Fold change /veh FAM167A (11723789_a_at) / RFU FAM26E (11764081_at) / Fold change /veh FAM26E (11764081_at) / RFU ISYNA1 (11749810_s_at) / Fold change /veh ISYNA1 (11749810_s_at) / RFU ACY1 (11761880_at) / Fold change /veh ACY1 (11761880_at) / RFU 11764098_at / Fold change /veh 11764098_at / RFU SAMD14 (11745864_x_at) / Fold change /veh SAMD14 (11745864_x_at) / RFU NPB (11741838_a_at) / Fold change /veh NPB (11741838_a_at) / RFU TMPRSS6 (11731388_a_at) / Fold change /veh TMPRSS6 (11731388_a_at) / RFU KRTAP10-2 (11738614_at) / Fold change /veh KRTAP10-2 (11738614_at) / RFU ARHGAP8 /// PRR5-ARHGAP8 (11727945_x_at) / Fold change /veh ARHGAP8 /// PRR5-ARHGAP8 (11727945_x_at) / RFU KRTAP5-7 /// NADSYN1 (11734609_at) / Fold change /veh KRTAP5-7 /// NADSYN1 (11734609_at) / RFU RASL12 (11751679_a_at) / Fold change /veh RASL12 (11751679_a_at) / RFU CDKN2B (11736163_a_at) / Fold change /veh CDKN2B (11736163_a_at) / RFU PRF1 (11729649_at) / Fold change /veh PRF1 (11729649_at) / RFU, ZNF638 /// ZNF638-IT1 / Fold change vs veh, ZNF638 /// ZNF638-IT1 / RFU, PANK3 / Fold change vs veh, PANK3 / RFU, SH3YL1 / Fold change vs veh, SH3YL1 / RFU, ZEB2 / Fold change vs veh, ZEB2 / RFU, NRIP1 / Fold change vs veh, NRIP1 / RFU, PTTG1IP / Fold change vs veh, PTTG1IP / RFU, CAPN2 / Fold change vs veh, CAPN2 / RFU, MED14 / Fold change vs veh, MED14 / RFU, SNORA58 / Fold change vs veh, SNORA58 / RFU, C1orf63 / Fold change vs veh, C1orf63 / RFU, LRRFIP1 / Fold change vs veh, LRRFIP1 / RFU, NDUFAF7 / Fold change vs veh, NDUFAF7 / RFU, SLC12A2 / Fold change vs veh, SLC12A2 / RFU, IBTK / Fold change vs veh, IBTK / RFU, ESF1 / Fold change vs veh, ESF1 / Fold change vs veh, TMEM50B / RFU, TAOK1 / Fold change vs veh, TAOK1 / RFU, ACBD3 / Fold change vs veh, ACBD3 / RFU, TMA16 / Fold change vs veh, TMA16 / RFU, RWDD3 / Fold change vs veh, RWDD3 / RFU, BCAT1 / Fold change vs veh, BCAT1 / RFU, EDEM3 / Fold change vs veh, EDEM3 / RFU, TMEM33 / Fold change vs veh, TMEM33 / RFU, WDR75 / Fold change vs veh, WDR75 / RFU, AHCTF1 / Fold change vs veh, AHCTF1 / RFU, TFRC / Fold change vs veh, TFRC / RFU, ZDHHC17 / Fold change vs veh, ZDHHC17 / RFU, NOM1 / Fold change vs veh, NOM1 / RFU, ARL8B / Fold change vs veh, ARL8B / RFU, ZBTB11 / Fold change vs veh, ZBTB11 / RFU, TAMM41 / Fold change vs veh, TAMM41 / RFU, KIAA1704 /// LOC100996395 / Fold change vs veh, KIAA1704 /// LOC100996395 / RFU, ING1 / Fold change vs veh, ING1 / RFU, TRMT61B / Fold change vs veh, TRMT61B / RFU, FUBP3 / Fold change vs veh, FUBP3 / RFU, TP53 / Fold change vs veh, TP53 / RFU, TNKS2 / Fold change vs veh, TNKS2 / RFU, ZFP14 / Fold change vs veh, ZFP14 / RFU, ACTR2 / Fold change vs veh, ACTR2 / RFU, PPP3R1 / Fold change vs veh, PPP3R1 / RFU, PIK3R1 / Fold change vs veh, PIK3R1 / RFU, HNRNPA1 / Fold change vs veh, HNRNPA1 / RFU, RNF170 / Fold change vs veh, RNF170 / RFU, ZNF28 / Fold change vs veh, ZNF28 / RFU, RNGTT / Fold change vs veh, RNGTT / RFU, OGT / Fold change vs veh, OGT / RFU, BRD1 / Fold change vs veh, BRD1 / RFU, MARS / Fold change vs veh, MARS / RFU, ZNF655 / Fold change vs veh, ZNF655 / RFU, FAHD1 / Fold change vs veh, FAHD1 / RFU, BDP1 / Fold change vs veh, BDP1 / RFU, LRRCC1 / Fold change vs veh, LRRCC1 / RFU, ARID1A / Fold change vs veh, ARID1A / RFU, ZNF146 / Fold change vs veh, ZNF146 / RFU, ZNF330 / Fold change vs veh, ZNF330 / RFU, GPN3 / Fold change vs veh, GPN3 / RFU, C9orf123 / Fold change vs veh, C9orf123 / RFU, N4BP2L2 / Fold change vs veh, N4BP2L2 / RFU, ARFIP1 / Fold change vs veh, ARFIP1 / RFU, FAM179B / Fold change vs veh, FAM179B / RFU, BCL10 / Fold change vs veh, BCL10 / RFU, UHRF1BP1L / Fold change vs veh, UHRF1BP1L / RFU, BET1 / Fold change vs veh, BET1 / RFU, CNOT2 / Fold change vs veh, CNOT2 / RFU, ZNF268 / Fold change vs veh, ZNF268 / Fold change vs veh, ZNF507 / RFU, DGCR2 / Fold change vs veh, DGCR2 / RFU, WDSUB1 / Fold change vs veh, WDSUB1 / Fold change vs veh, HSP90B1 /// MIR3652 / RFU, ADSS / Fold change vs veh, ADSS / RFU, GK / Fold change vs veh, GK / RFU, ZNF148 / Fold change vs veh, ZNF148 / RFU, TAF9 / Fold change vs veh, TAF9 / RFU, SLC1A5 / Fold change vs veh, SLC1A5 / RFU, SLMO2 / Fold change vs veh, SLMO2 / RFU, ABCC4 / Fold change vs veh, ABCC4 / RFU, LOC101060439 /// RAP1B / Fold change vs veh, LOC101060439 /// RAP1B / RFU, RFX7 / Fold change vs veh, RFX7 / RFU, GTPBP10 / Fold change vs veh, GTPBP10 / RFU, CNEP1R1 / Fold change vs veh, CNEP1R1 / RFU, BIVM-ERCC5 /// ERCC5 / Fold change vs veh, BIVM-ERCC5 /// ERCC5 / RFU, ILF3 / Fold change vs veh, ILF3 / RFU 11762660_at / Fold change /veh 11762660_at / RFU VCAN (11757783_s_at) / Fold change /veh VCAN (11757783_s_at) / RFU DDX43 (11728927_at) / Fold change /veh DDX43 (11728927_at) / RFU KRT8 (11758188_x_at) / Fold change /veh KRT8 (11758188_x_at) / RFU NKD1 (11759106_at) / Fold change /veh NKD1 (11759106_at) / RFU SRD5A1 (11742802_a_at) / Fold change /veh SRD5A1 (11742802_a_at) / RFU TPSAB1 /// TPSB2 (11721975_s_at) / Fold change /veh TPSAB1 /// TPSB2 (11721975_s_at) / RFU GSTM3 (11746129_a_at) / Fold change /veh GSTM3 (11746129_a_at) / RFU IL23R (11737362_x_at) / Fold change /veh IL23R (11737362_x_at) / RFU TMEM51 (11727254_a_at) / Fold change /veh TMEM51 (11727254_a_at) / RFU PIWIL2 (11732686_x_at) / Fold change /veh PIWIL2 (11732686_x_at) / RFU ORM1 (11744905_x_at) / Fold change /veh ORM1 (11744905_x_at) / RFU CCDC152 (11743942_at) / Fold change /veh CCDC152 (11743942_at) / RFU ECM1 (11717891_a_at) / Fold change /veh ECM1 (11717891_a_at) / RFU IL23R (11748794_a_at) / Fold change /veh IL23R (11748794_a_at) / RFU TNFAIP8L3 (11732012_x_at) / Fold change /veh TNFAIP8L3 (11732012_x_at) / RFU MBOAT4 (11741988_at) / Fold change /veh MBOAT4 (11741988_at) / RFU 11764193_at / Fold change /veh 11764193_at / RFU TMEM53 (11763286_at) / Fold change /veh TMEM53 (11763286_at) / RFU MAGEB2 (11727129_at) / Fold change /veh MAGEB2 (11727129_at) / RFU TMEM200A (11744735_a_at) / Fold change /veh TMEM200A (11744735_a_at) / RFU CCDC152 (11751479_a_at) / Fold change /veh CCDC152 (11751479_a_at) / RFU FAM211A (11726209_a_at) / Fold change /veh FAM211A (11726209_a_at) / RFU RGS16 (11746705_a_at) / Fold change /veh RGS16 (11746705_a_at) / RFU VCAN (11755009_s_at) / Fold change /veh VCAN (11755009_s_at) / RFU RHOB (11743442_s_at) / Fold change /veh RHOB (11743442_s_at) / RFU RGS16 (11720943_a_at) / Fold change /veh RGS16 (11720943_a_at) / RFU RGS16 (11720944_at) / Fold change /veh RGS16 (11720944_at) / RFU, VPS4B / Fold change vs veh, VPS4B / RFU, CREB1 / Fold change vs veh, CREB1 / RFU, DNAJC13 / Fold change vs veh, DNAJC13 / RFU, GNAQ / Fold change vs veh, GNAQ / RFU, CDK5R1 / Fold change vs veh, CDK5R1 / RFU, ZRANB3 / Fold change vs veh, ZRANB3 / RFU, CUL4A / Fold change vs veh, CUL4A / RFU, CCNY / Fold change vs veh, CCNY / RFU, UFL1 / Fold change vs veh, UFL1 / RFU, COG3 / Fold change vs veh, COG3 / RFU, DIAPH2 / Fold change vs veh, DIAPH2 / RFU, SKA2 / Fold change vs veh, SKA2 / RFU, AFF3 / Fold change vs veh, AFF3 / RFU, LMF1 / Fold change vs veh, LMF1 / RFU, IPO11 / Fold change vs veh, IPO11 / RFU, DFFB / Fold change vs veh, DFFB / RFU, FOXP1 / Fold change vs veh, FOXP1 / RFU, CARD8 / Fold change vs veh, CARD8 / RFU, STRN3 / Fold change vs veh, STRN3 / RFU, ADK / Fold change vs veh, ADK / RFU, RASSF2 / Fold change vs veh, RASSF2 / RFU, WIPF1 / Fold change vs veh, WIPF1 / RFU, LARP1B / Fold change vs veh, LARP1B / RFU, RASA1 / Fold change vs veh, RASA1 / RFU, RB1 / Fold change vs veh, RB1 / RFU, PPFIA1 / Fold change vs veh, PPFIA1 / RFU, MAT2A / Fold change vs veh, MAT2A / RFU, CCT5 / Fold change vs veh, CCT5 / RFU, WDR92 / Fold change vs veh, WDR92 / RFU, CUX1 / Fold change vs veh, CUX1 / RFU, TTC7A / Fold change vs veh, TTC7A / RFU, TMEM135 / Fold change vs veh, TMEM135 / RFU, DEPTOR / Fold change vs veh, DEPTOR / RFU, CPM / Fold change vs veh, CPM / RFU, DNAJB6 / Fold change vs veh, DNAJB6 / RFU, CACNA2D3 / Fold change vs veh, CACNA2D3 / RFU, DTX4 / Fold change vs veh, DTX4 / RFU, TFCP2 / Fold change vs veh, TFCP2 / RFU, GMCL1 /// GMCL1P1 / Fold change vs veh, GMCL1 /// GMCL1P1 / RFU, AEBP2 / Fold change vs veh, AEBP2 / RFU, SNHG1 /// SNORD22 /// SNORD25 /// SNORD26 /// SNORD27 /// SNORD28 /// SNORD29 /// SNORD31 / Fold change vs veh, SNHG1 /// SNORD22 /// SNORD25 /// SNORD26 /// SNORD27 /// SNORD28 /// SNORD29 /// SNORD31 / Fold change (Aza/veh), C12orf56 (ProbeSet 11735607_a_at) / Fold change (ACY-1035/veh), C12orf56 (ProbeSet 11735607_a_at) / Fold change (Aza/veh), FGFR1OP (ProbeSet 11751329_s_at) / Fold change (ACY-1035/veh), FGFR1OP (ProbeSet 11751329_s_at) / Fold change (Aza/veh), VPS36 (ProbeSet 11739960_a_at) / Fold change (ACY-1035/veh), VPS36 (ProbeSet 11739960_a_at) / RFU SYPL1 (11715823_x_at) / Fold change /veh SYPL1 (11715823_x_at) / RFU IGFBP7 (11715501_s_at) / Fold change /veh IGFBP7 (11715501_s_at) / RFU REEP3 (11722064_at) / Fold change /veh REEP3 (11722064_at) / RFU IGLL1 (11728026_x_at) / Fold change /veh IGLL1 (11728026_x_at): dose or concentration left out as unconfirmed
Conditions: ProbeSet 11717308_a_at; LIST B

Nc1ccc(-c2cccs2)cc1NC(=O)c1ccc2c(c1)cc(C1CC1)n2CCN1CCOCC1 [ACY-1035]
Fold change vs veh, WDR75: 0.92
